Reference: patent publication US20230123334A1, “AMINO LIPID COMPOUND, PREPARATION METHOD THEREFOR, AND APPLICATION THEREOF” (SHENZHEN SHENXIN BIOTECHNOLOGY CO., LTD., priority 2020, published 2023)

Experiments:
Type in all cases: cell-based
[1] = test system: embryonic stem cells (hESC2); assay: Screening as mRNA vectors in embryonic stem cells; details: 50 ng EGFP mRNA per well
Experimental: (§1) Cell line: embryonic stem cells (hESC2, cultured according to reported methods: Stem Cells, 2005, 23, 544-549)
(§2) Medium: mTeSR1 (STEMCELL)
Mode of screening: cell transfection on 96-well plate
(§3) Detection (readout): percentage of the number of GFP fluorescent cells relative to the total number of cells. Lipofectamine Stem was used as the positive control.
Method: the experimental method was basically the same with Example 10, and the mass of EGFP mRNA for transfection was 50 ng per well.

[2] = test system: cardiomyocytes; assay: Screening as mRNA vectors in cardiomyocytes; details: 50 ng EGFP mRNA per well
Experimental: Cell line: cardiomyocytes (obtained from induced differentiation of hESC according to reported methods: J Mol. Cell. Cardiol. 2011, 51, 288-298)
(§4) Medium: DMEM supplemented with 10% fetal bovine serum (Invitrogen)
(§5) Mode of screening: cell transfection on 96-well plates
(§6) Detection (readout): percentage of the number of GFP fluorescent cells relative to the total number of cells (the total number of cells was determined using nucleus dye Hoechst). Lipofectamine Stem (Invitrogen) was used as the positive control, according to the manufacturer's instructions.
Method: the experimental method was basically the same with Example 4, and the mass of EGFP mRNA for transfection was 50 ng per well.

[3] = test system: Hela cells; assay: Transfection of Hela cell line, DNA vectors; details: 75 ng plasmid DNA, GFP cells / total cells
Outline: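 Amino lipid/DOPE liposomes in sodium acetate pH 5.6 were complexed with 75 ng psin-EGFP-IRES-Puro plasmid for 30 min at room temperature, then mixed with 3-5×10^4 Hela cells in DMEM/10% FBS at 37° C. Hoechst stain after 20-24 h, imaging after a further 20-24 h. Efficiency = GFP-positive cells / total nuclei.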

[4] = test system: embryonic stem cells (hESC2); assay: Screening as DNA vectors in embryonic stem cells, flow cytometry; details: 75 ng plasmid DNA, 48 hours after transfection, flow cytometer
Description: as §1, §2, §5, §3
Method: an 8-channel pipette was used for sample addition. The contents shown were for a single well of a 96-well flat plate.
1. Stem cells were cultured to 3-5×10^4 cells per well in a 96-well plate treated with matrigel.
2. The compound (0.01 mmol) prepared in Example 1 was dissolved in 1 mL of anhydrous ethanol. After ultrasonically dissolved, 10 μL of the resultant amino lipid solution in ethanol was taken and mixed with 5 μL of DOPE solution in ethanol ([…]). The obtained mixture was then added with 35 μL of 0.2 M sodium acetate buffer (pH 5.6), and vortexed at a constant rotating speed for 30 s. Then, 4 μL was taken from the obtained product and added to 46 μL of 0.02 M sodium acetate buffer (pH 5.6), and vortexed at a constant rotating speed for 30 s to form a liposome solution. 5 μL of this liposome solution was mixed with 75 ng of plasmid DNA (pSin-EGFP-IRES-Puro) dissolved in 5 μL of 0.02 M sodium acetate buffer, and allowed to stay at room temperature for 30 min to form a lipid/DNA transfection complex.
3. 10 μL of the lipid/DNA transfection complex was incubated at room temperature for 30 min, followed by addition of 90 μL mTeSR1 medium was added and mixing with a pipette. 100 μL of the mixture was added to separate wells of a 96-well culture plate and placed in an incubator containing 5% CO2 at 37° C.
4. 48 hours after transfection, the cells were digested with 0.05% Trypsin-EDTA. The cells were resuspended in a PBS buffer and filtered. The cell suspension was placed in a flow cytometer and the number of GFP-expressing cells in no less than 2000 cells was measured so as to obtain the absolute efficiency of cell transfection. The relative efficiency of cell transfection was obtained by comparing the cell transfection efficiency with the positive control Lipofectamine Stem.

[5] = test system: Hela cells; assay: Transfection of Hela cell line, mRNA vectors; details: 50 ng EGFP mRNA per well
Outline: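 HeLa cells in DMEM with 10% FBS transfected with 50 ng EGFP mRNA per well. Readout is percentage of GFP-positive cells among total cells counted by Hoechst nuclear stain; Lipofectamine2000 served as positive control.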

[6] = test system: MCF7 cells; assay: Transfection of MCF7 cell line, DNA vectors; parameters: concentration or dose not given beside the values; details: plasmid DNA, GFP cells / total cells
Outline: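 MCF7 cells in DMEM with fetal bovine serum were transfected in 96-well format. Read-out was the percentage of GFP-fluorescent cells among total cells counted by Hoechst nuclear stain. Lipofectamine2000 served as positive control.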

[7] = test system: cardiomyocytes; assay: Screening as DNA vectors in cardiomyocytes; parameters: concentration or dose not given beside the values; details: method as Example 4
Experimental: Cell line: cardiomyocytes (obtained from induced differentiation of hESC according to reported methods: J. Mol. Cell. Cardiol. 2011, 51, 288-298)
as §4, §5, §6
Method: the experimental method was basically the same with Example 4.

[8] = test system: MCF7 cells; assay: Transfection of MCF7 cell line, mRNA vectors; details: 50 ng EGFP mRNA per well
Outline: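 MCF7 cells in DMEM with fetal bovine serum were transfected with 50 ng EGFP mRNA per well. Read-out was the percentage of GFP-positive cells among total Hoechst-stained nuclei, with Lipofectamine2000 as positive control.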

Structure (SMILES) | Absolute mRNA transfection efficiency in embryonic stem cells [1] [%] | Absolute mRNA transfection efficiency in cardiomyocytes [2] [%] | Absolute DNA transfection efficiency in Hela cells [3] [%] | Absolute DNA transfection efficiency in embryonic stem cells [4] [%] | Absolute mRNA transfection efficiency in Hela cells [5] [%] | Absolute DNA transfection efficiency in MCF7 cells [6] [%] | Absolute DNA transfection efficiency in cardiomyocytes [7] [%] | Absolute mRNA transfection efficiency in MCF7 cells [8] [%]
CCCCCCCCCCCNc1nc(NCCCN2CCN(C)CC2)nc(SCCCCCCCC)n1 [Compound S8N11D9] | 1.0 | 31.6 | 31.9 | 0.5 | 31.9 | 45.4 | 0.6 | 6.6
CCCCCCCCCCCNc1nc(NCC2CCN(C)CC2)nc(SCCCCCCCC)n1 [Compound S8N11D10] | 0.7 | 16.8 | 23.4 | 0.7 | 23.4 | 45.3 | 6.6 | 4.4
CCCCCCCCCCCSc1nc(NCCN2CCCC2)nc(SCCCCCCCC)n1 [Compound S8S11D3] | 21.4 | 21.0 | 3.3 | 0.7 | 3.3 | 2.7 | 1.9 | 20.4
CCCCCCCCCCCSc1nc(NCCN2CCN(C)CC2)nc(SCCCCCCCC)n1 [Compound S8S11D5] | 21.1 | 2.7 | 5.9 | 2.4 | 5.9 | 48.3 | 0.5 | 30.6
CCCCCCCCCCCSc1nc(NCCCN(C)C)nc(SCCCCCCCC)n1 [Compound S8S11D6] | 10.3 | 18.4 | 3.9 | 1.6 | 3.9 | 56.8 | 1.0 | 46.3
CCCCCCCCCCCSc1nc(NCCCN2CCOCC2)nc(SCCCCCCCC)n1 [Compound S8S11D8] | 1.6 | 0.7 | 7.6 | 1.0 | 7.6 | 12.3 | 2.2 | 7.0
CCCCCCCCCCCSc1nc(NCCCN2CCN(C)CC2)nc(SCCCCCCCC)n1 [Compound S8S11D9] | 18.1 | 25.5 | 6.8 | 1.0 | 6.8 | 59.8 | 0.8 | 34.9
CCCCCCCCCCCSc1nc(NCC2CCN(C)CC2)nc(SCCCCCCCC)n1 [Compound S8S11D10] | 37.4 | 20.8 | 21.8 | 0.7 | 21.8 | 37.2 | 1.4 | 40.4
CCCCCCCCCCCCSc1nc(NCCN2CCCC2)nc(SCCCCCCCC)n1 [Compound S8S12D3] | 17.9 | 36.7 | 5.5 | 1.5 | 5.5 | 1.9 | 0.3 | 6.7
CCCCCCCCCCCCSc1nc(NCCN2CCN(C)CC2)nc(SCCCCCCCC)n1 [Compound S8S12D5] | 24.9 | 2.5 | 12.4 | 1.7 | 12.4 | 26.3 | 2.4 | 32.6
CCCCCCCCCCCCSc1nc(NCCCN(C)C)nc(SCCCCCCCC)n1 [Compound S8S12D6] | 7.1 | 44.9 | 6.3 | 3.3 | 6.3 | 34.4 | 1.6 | 50.0
CCCCCCCCCCCCSc1nc(NCCCN2CCOCC2)nc(SCCCCCCCC)n1 [Compound S8S12D8] | 0.7 | 0.7 | 17.2 | 5.9 | 17.2 | 37.7 | 1.9 | 14.0
CCCCCCCCCCCCSc1nc(NCCCN2CCN(C)CC2)nc(SCCCCCCCC)n1 [Compound S8S12D9] | 16.3 | 14.0 | 1.7 | 2.9 | 1.7 | 13.1 | 1.0 | 5.3
CCCCCCCCCCCCSc1nc(NCC2CCN(C)CC2)nc(SCCCCCCCC)n1 [Compound S8S12D10] | 24.6 | 25.6 | 11.7 | 2.6 | 11.7 | 37.7 | 1.0 | 50.2
